These results are taken from patent US6861428B2, “Water-soluble phenylpyridazine compounds and compositions containing the same” (Kowa Co., Ltd., priority 2001, dated 2005).

SMILES strings stand for the structures. Counter-ions that a name gives are not always drawn.

One may read the IC50 as the concentration that inhibits the measured activity by half. The term melting point denotes the temperature, or range, at which the solid turns liquid.

In one series the test system is interleukin-1β production. The experiment in a line: Inhibitory activity against interleukin-1β production (LPS-stimulated HL-60 cells, ELISA). The note with it: Homo sapiens, 72 h, lipopolysaccharide 10 μg/mL, 3 days, Table 2, read-out: IL-1β production inhibiting activity IC50. It counts as cell-based. The method, then: Inhibitory Activity Against Interleukin-1β Production
HL-60 cells were cultured for 4 days until confluence on RPMI 1640 medium with 10% fetal bovine serum (FBS) added thereto. The medium was centrifuged. The supernatant was discarded, and the cells were then suspended at 1×10^6 cells/mL on RPMI 1640 medium with 3% FBS, and lipopolysaccharide was added to give a final concentration of 10 μg/mL. The culture was inoculated at 1 mL/well to a 24-well plate. A sample compound was added at 1 μL/well, followed by culturing for 3 days. Three days later, the amount of interleukin-1β in each culture was determined by ELISA. Each IC50 value was determined by a comparison in yield with a control to which no test sample was added.
A general note: An ELISA detects its analyte on a solid surface through an enzyme-linked reagent.
`COc1ccc(-c2cc(CN3CCN(CCO)CC3)c(=O)n(CC=Cc3ccc(Cl)cc3)n2)cc1F` [Example 210, 2-(4-chlorocinnamyl)-6-(3-fluoro-4-methoxyphenyl)-4-[4-(2-hydroxyethyl)-1-piperazinyl]methyl-2H-pyridazin-3-one]: the half-inhibitory concentration (IC50) stood at 3.1 µM.

Still in this series, the particulars now being: lipopolysaccharide 10 μg/mL, 3 days, Table 1, read-out: IL-1β production inhibiting activity IC50.
For `Cc1ccc(-c2cc(CN(CCO)CCO)c(=O)n(CC(C)C)n2)cc1` [Example 49, 4-N,N-bis(2-hydroxyethyl)aminomethyl-6-(4-methylphenyl)-2-isobutyl-2H-pyridazin-3-one hydrochloride], the IC50 amounted to 3.53 µM.

Test system in the next series: not given
Assay: not given
Settings: not given
For `CC(C)Cn1nc(-c2ccc(F)c(F)c2)cc(CN2CCNCC2)c1=O.Cl.Cl`, the melting point was 182.5 to 186 °C. On the same count and under the same terms, under `CC(C)Cn1nc(-c2ccc(F)c(F)c2)cc(CN2CCN(C)CC2)c1=O.Cl.Cl` stands 242.5 to 243.4 °C; under `Cc1cc(-c2cc(CN3CCNCC3)c(=O)n(Cc3ccccc3)n2)ccc1F.Cl.Cl`, 162.7 to 180.7 °C (dec.); under `Cc1cc(-c2cc(CN3CCN(C)CC3)c(=O)n(Cc3ccccc3)n2)ccc1F.Cl.Cl`, 240 to 242.5 °C (dec.). As to `Cc1cc(-c2cc(CN(C)C)c(=O)n(Cc3ccccc3)n2)ccc1F.Cl`, the melting point fell in the range of 225.3 to 226 °C. Still for that read-out and setting: under `Cc1cc(-c2cc(CN3CCNCC3)c(=O)n(CC=Cc3ccccc3)n2)ccc1F.Cl.Cl` stands 171.1 to 187.1 °C (dec.); under `Cc1cc(-c2cc(CN3CCN(C)CC3)c(=O)n(CC=Cc3ccccc3)n2)ccc1F.Cl.Cl`, 236.1 to 237.1 °C. Regarding `Cc1cc(-c2cc(CN(C)C)c(=O)n(CC=Cc3ccccc3)n2)ccc1F.Cl`, the melting point is 183.6 to 184.5 °C. The same measure, in the same setting: under `Cc1cc(-c2cc(CN3CCNCC3)c(=O)n(CC=Cc3ccc(Cl)cc3)n2)ccc1F.Cl.Cl` stands 186.7 to 197 °C (dec.).

Regarding `Cc1cc(-c2nn(CC=Cc3ccc(Cl)cc3)c(=O)c(N(C)C)c2C)ccc1F.Cl`, the melting point fell in the range of 201.3 to 201.9 °C. Consider `CSc1ccc(-c2cc(CN3CCNCC3)c(=O)n(CC(C)C)n2)cc1.Cl.Cl`, for which the melting point is 248.5 to 253.7 °C (dec.). The same measure, in the same setting: under `CN1CCN(Cc2cc(-c3ccc([S+](C)[O-])cc3)nn(CC3CC3)c2=O)CC1.Cl.Cl` (stereo not drawn) stands 80 °C (dec.); under `Cc1c(-c2ccc([S+](C)[O-])cc2)nn(CC(C)C)c(=O)c1N1CCN(C)CC1.Cl.Cl` (stereo not drawn), 224.5 to 229.1 °C (dec.); under `CC(C)Cn1nc(-c2ccc([S+](C)[O-])cc2)cc(CN(C)C)c1=O.Cl` (stereo not drawn), 204.2 to 206 °C. `CN1CCN(Cc2cc(-c3ccc(S(C)(=O)=O)cc3)nn(CC3CC3)c2=O)CC1.Cl.Cl` came in with a melting point of 209 to 211.4 °C. Turning to `Cc1c(-c2ccc(S(C)(=O)=O)cc2)nn(CC2CC2)c(=O)c1N(C)C.Cl`, the melting point was 239.5 to 240.7 °C. As to `CC(C)Cn1nc(-c2ccc(S(C)(=O)=O)cc2)cc(CN2CCNCC2)c1=O.Cl.Cl`, the melting point lay in the range of 222.4 to 224.2 °C. In turn, `CC(C)Cn1nc(-c2ccc(S(C)(=O)=O)cc2)cc(CN(C)C)c1=O.Cl` yielded a melting point of 221.4 to 223.3 °C. Regarding `Cc1ccc(-c2cc(CN3CCNCC3)c(=O)n(CC(C)C)n2)cc1F.Cl.Cl`, the melting point was 186.2 to 195 °C (dec.). Turning to `Cc1cc(-c2cc(CN3CCN(C)CC3)c(=O)n(Cc3ccc(Cl)cc3)n2)ccc1F.Cl.Cl`, the melting point is 246.4 to 249.7 °C (dec.). Still for that read-out and setting: under `Cc1cc(-c2cc(CN3CCN(C)CC3)c(=O)n(Cc3ccccc3Cl)n2)ccc1F.Cl.Cl` stands 191 to 202 °C (dec.); under `Cc1cc(-c2cc(CN)c(=O)n(Cc3ccccc3Cl)n2)ccc1F.Cl`, 201.9 to 206.4 °C. Still for that read-out and setting: under `COc1ccc(-c2cc(CN3CCNCC3)c(=O)n(CC(C)C)n2)cc1F.Cl.Cl` stands 163 to 177 °C (dec.). Consider `COc1ccc(-c2cc(CN3CCN(C)CC3)c(=O)n(CC(C)C)n2)cc1F.Cl.Cl`, for which the melting point lay in the range of 236.9 to 237 °C. Compound `COc1ccc(-c2cc(CN(C)C)c(=O)n(CC(C)C)n2)cc1F.Cl` had a melting point of 212.4 to 212.8 °C. The compound `Cc1c(-c2ccccc2)nn(CC(C)C)c(=O)c1N1CCNCC1.Cl.Cl` gave a melting point of 154.3 to 159.5 °C. Compound `Cc1c(-c2ccccc2)nn(CC(C)C)c(=O)c1N1CCN(C)CC1.Cl.Cl` registered a melting point of 243.8 to 244.3 °C. On the same count and under the same terms, under `Cc1ccc(-c2cc(CN3CCN(C)CC3)c(=O)n(CC(C)C)n2)cc1F.Cl.Cl` stands 248.5 to 252 °C (dec.); under `CC(C)Cn1nc(-c2ccccc2)cc(CN(C)C)c1=O.Cl`, 221.7 to 222.3 °C. The same measure, in the same setting: the same measure for `CC(C)Cn1nc(-c2ccc(C(F)(F)F)cc2)cc(CN2CCNCC2)c1=O.Cl.Cl`: 210.8 to 212.5 °C; for `Cc1c(-c2ccc(C(F)(F)F)cc2)nn(CC(C)C)c(=O)c1N1CCN(C)CC1.Cl.Cl`: 249.9 to 252.8 °C; for `CC(C)Cn1nc(-c2ccc(C(F)(F)F)cc2)cc(CN(C)C)c1=O.Cl`: 242.2 to 242.3 °C. Take `CC(C)Cn1nc(-c2ccc(-c3ccccc3)cc2)cc(CN2CCNCC2)c1=O.Cl.Cl`: the melting point was 226.8 to 228 °C.

For the compound `CC(C)Cn1nc(-c2ccc(-c3ccccc3)cc2)cc(CN2CCN(C)CC2)c1=O.Cl.Cl`, the melting point lay in the range of 262.2 to 263.6 °C. On to `Cc1c(-c2ccc(-c3ccccc3)cc2)nn(CC(C)C)c(=O)c1N(C)C.Cl`, for which the melting point fell in the range of 243.9 to 244.1 °C. On the same count and under the same terms, under `COc1ccc(-c2cc(CN3CCNCC3)c(=O)n(CC(C)C)n2)cc1Cl.Cl.Cl` stands 203.6 to 204.5 °C. On to `COc1ccc(-c2cc(CN3CCN(C)CC3)c(=O)n(CC(C)C)n2)cc1Cl.Cl.Cl`, for which the melting point is 235.8 to 236.7 °C. With `COc1ccc(-c2cc(CN(C)C)c(=O)n(CC(C)C)n2)cc1Cl.Cl`, the melting point was 213.6 to 214.3 °C.

For the compound `CNCc1cc(-c2ccc(OC)c(F)c2)nn(CC2CC2)c1=O`, the melting point is 169.1 to 170.7 °C.

Turning to `COc1ccc(-c2cc(CN3CCNCC3)c(=O)n(CC3CC3)n2)cc1F` [Example 20, 2-cyclopropylmethyl-6-(3-fluoro-4-methoxyphenyl)-4-(1-piperazinyl)methyl-2H-pyridazin-3-one], the melting point lay within 111.5 to 118 °C. The same measure, in the same setting: under `Cc1ccc(-c2cc(CN)c(=O)n(CC(C)C)n2)cc1` [Example 50, 4-aminomethyl-2-isobutyl-6-(4-methylphenyl)-2H-pyridazin-3-one] stands 74.9 to 77.9 °C; under `Cc1ccc(-c2nn(CC(C)C)c(=O)c(NC(CO)CO)c2C)cc1` [Example 52, 4-(1,3-dihydroxypropan-2-yl)amino-methyl-2-isobutyl-6-(4-methylphenyl)-2H-pyridazin-3-one], 134.1 to 135.2 °C. As for `CSc1ccc(-c2nn(CC3CC3)c(=O)c(N(C)C)c2C)cc1.Cl` [Example 153, 2-cyclopropylmethyl-4-dimethylamino-methyl-6-[4-(methylthio)phenyl]-2H-pyridazin-3-one hydrochloride], the melting point was in the range of 230.2 to 232.3 °C. With `COc1ccc(-c2cc(CN(C)C)c(=O)n(Cc3ccc(F)cc3)n2)cc1F` [Example 190, 4-dimethylaminomethyl-2-(4-fluorobenzyl)-6-(3-fluoro-4-methoxyphenyl)-2H-pyridazin-3-one], the melting point lay in the range of 127 to 129 °C. As for `COc1ccc(-c2cc(CN)c(=O)n(Cc3ccc(F)cc3)n2)cc1F` [Example 194, 4-aminomethyl-2-(4-fluorobenzyl)-6-(3-fluoro-4-methoxyphenyl)-2H-pyridazin-3-one], the melting point is 145 to 149 °C. The compound `COc1ccc(-c2cc(CN(C)C)c(=O)n(CCCc3ccc(F)cc3)n2)cc1F` [Example 197, 4-dimethylaminomethyl-6-(3-fluoro-4-methoxyphenyl)-2-[3-(4-fluorophenyl)propyl]-2H-pyridazin-3-one] came in with a melting point of 97 to 100 °C.

On to `COc1ccc(-c2cc(CN)c(=O)n(CCCc3ccc(F)cc3)n2)cc1F` [Example 200, 4-aminomethyl-6-(3-fluoro-4-methoxyphenyl)-2-[3-(4-fluorophenyl)propyl]-2H-pyridazin-3-one], for which the melting point fell in the range of 82 to 84 °C.

As for `COc1ccc(-c2cc(CN(C)C)c(=O)n(Cc3ccc(Cl)cc3)n2)cc1F` [Example 203, 2-(4-chlorobenzyl)-4-dimethylaminomethyl-6-(3-fluoro-4-methoxyphenyl)-2H-pyridazin-3-one], the melting point lay in the range of 95.3 to 96.7 °C.

`COc1ccc(-c2cc(CN)c(=O)n(Cc3ccc(Cl)cc3)n2)cc1F` [Example 205, 4-aminomethyl-2-(4-chlorobenzyl)-6-(3-fluoro-4-methoxyphenyl)-2H-pyridazin-3-one] gave a melting point of 128.5 to 131.4 °C. In turn, `Cc1cc(-c2cc(CN3CCN(C)CC3)c(=O)n(Cc3ccccc3Cl)n2)ccc1F` [Example 224, 2-(2-chlorobenzyl)-6-(4-fluoro-3-methylphenyl)-4-(4-methyl-1-piperazinyl)methyl-2H-pyridazin-3-one] yielded a melting point of 149.7 to 150.9 °C.

The compound `Cc1cc(-c2cc(CN)c(=O)n(Cc3ccccc3Cl)n2)ccc1F` [Example 237, 4-aminomethyl-2-(2-chlorobenzyl)-6-(4-fluoro-3-methylphenyl)-2H-pyridazin-3-one] registered a melting point of 97.6 to 102.2 °C. On to `COc1ccc(-c2cc(CCCN3CCN(C)CC3)c(=O)n(Cc3ccc(F)cc3)n2)cc1F` [Example 239, 2-(4-fluorobenzyl)-6-(3-fluoro-4-methoxyphenyl)-4-[3-(4-methyl-1-piperazinyl)propyl]-2H-pyridazin-3-one], for which the melting point fell in the range of 108 to 109 °C.
